System: tobacco budworm (Heliothis virescens [Fabricius])
Assay: surface-treated diet test against tobacco budworm
Assay type: in vivo
Conditions: for Percent Growth Inhibition: inhibition of insect weight relative to untreated controls
Method: Candidate insecticides were evaluated for activity against the tobacco budworm (Heliothis virescens [Fabricius]) in a surface-treated diet test.
In this test one mL of molten (65-70° C.) wheat germ-based artificial diet was pipetted into each well of a four by six (24 well) multi-well plate (ID# 430345-15.5 mm dia.×17.6 mm deep; Corning Costar Corp., One Alewife Center, Cambridge, Mass. 02140). The diet was allowed to cool to ambient temperature before treatment with candidate insecticide.
For a determination of insecticidal activity, solutions of the candidate insecticides were prepared for testing using a Packard 204DT Multiprobe® Robotic System (Packard Instrument Company, 800 Research Parkway, Meriden, Conn. 06450), in which the robot first diluted a standard 50 millimolar DMSO solution of candidate insecticide with a 1:1 water/acetone solution (V/V) in a ratio of 1:7 stock solution to water/acetone. The robot subsequently pipetted 40 microliters of the so-prepared solution onto the surface of the diet in each of three wells in the 24 multi-well plate. The process was repeated with solutions of seven other candidate insecticides. Once treated, the contents of the multi-well plate were allowed to dry, leaving 0.25 millimoles of candidate insecticide on the surface of the diet, or a concentration of 0.25 millimolar. Appropriate untreated controls containing only DMSO on the diet surface were also included in this test.
For evaluations of the insecticidal activity of a candidate insecticide at varying rates of application, the test was established as described above using sub-multiples of the standard 50 millimolar DMSO solution of candidate insecticide. For example, the standard 50 millimolar solution was diluted by the robot with DMSO to give 5, 0.5, 0.05, 0.005, 0.0005 millimolar, or more dilute solutions of the candidate insecticide. In these evaluations there were six replicates of each rate of application placed on the surface of the diet in the 24 multi-well plate, for a total of four rates of application of candidate insecticide in each plate.
In each well of the test plate was placed one second instar tobacco budworm larvae, each weighing approximately five milligrams. After the larvae were placed in each well, the plate was sealed with clear polyfilm adhesive tape. The tape over each well was perforated to ensure an adequate air supply. The plates were then held in a growth chamber at 25° C. and 60% relative humidity for five days (light 14 hours/day).
After the five-day exposure period insecticidal activity for each rate of application of candidate insecticide was assessed as percent inhibition of insect weight relative to the weight of insects from untreated controls, and percent mortality when compared to the total number of insects infested.
The test compounds of formula I are identified by numbers that correspond to those in Table 1.

[1] = 0.25 millimolar on the surface of the diet, second instar larvae, five-day exposure, compared to the total number of insects infested
[2] = 0.25 millimolar on the surface of the diet, second instar larvae, five-day exposure

SMILES | Percent Mortality [1] [%] | Percent Growth Inhibition [2] [%] | Percent Mortality (in vivo) [%]
C[C@H]1OC(c2ccc(CN3CCC(C(O)(c4ccc(OC(F)(F)F)cc4)c4ccc(OC(F)(F)F)cc4)CC3)cc2)O[C@@H]1C (relative stereo) [Compound 120] | 100 | 100 | –
C[C@H]1OC(c2ccc(C[N+]3([O-])CCC(C(O)(c4ccc(OC(F)(F)F)cc4)c4ccc(OC(F)(F)F)cc4)CC3)cc2)O[C@@H]1C (relative stereo) [Compound 124] | 100 | 100 | –
[O-][N+]1(Cc2ccc(C3O[C@@H]4CCCC[C@H]4O3)cc2)CCC(C(O)(c2ccc(OC(F)(F)F)cc2)c2ccc(OC(F)(F)F)cc2)CC1 (relative stereo) [Compound 128] | 100 | 100 | –
OC(c1ccc(OC(F)(F)F)cc1)(c1ccc(OC(F)(F)F)cc1)C1CCN(Cc2ccc(C3OCCO3)cc2)CC1 [Compound 1] | – | 100 | 100
[O-][N+]1(Cc2ccc(C3OCCO3)cc2)CCC(C(O)(c2ccc(OC(F)(F)F)cc2)c2ccc(OC(F)(F)F)cc2)CC1 (stereo not shown) [Compound 2] | – | 100 | 100
CC1COC(c2ccc(CN3CCC(C(O)(c4ccc(OC(F)(F)F)cc4)c4ccc(OC(F)(F)F)cc4)CC3)cc2)O1 (stereo not shown) [Compound 3] | 100 | 100 | –
OC(c1ccc(OC(F)(F)F)cc1)(c1ccc(OC(F)(F)F)cc1)C1CCN(Cc2ccc(C3OCCCO3)cc2)CC1 [Compound 4] | 100 | 100 | –
[O-][N+]1(Cc2ccc(C3OCCCO3)cc2)CCC(C(O)(c2ccc(OC(F)(F)F)cc2)c2ccc(OC(F)(F)F)cc2)CC1 (stereo not shown) [Compound 5] | 100 | 100 | –
[O-][N+]1(Cc2ccc(C3OCCCCO3)cc2)CCC(C(O)(c2ccc(OC(F)(F)F)cc2)c2ccc(OC(F)(F)F)cc2)CC1 (stereo not shown) [Compound 7] | 100 | 100 | –
CC1(c2ccc(CN3CCC(C(O)(c4ccc(OC(F)(F)F)cc4)c4ccc(OC(F)(F)F)cc4)CC3)cc2)OCCO1 [Compound 8] | 100 | 100 | –
CC1COC(c2ccc(C[N+]3([O-])CCC(C(O)(c4ccc(OC(F)(F)F)cc4)c4ccc(OC(F)(F)F)cc4)CC3)cc2)O1 (stereo not shown) [Compound 9] | 100 | 100 | –
CC1(c2ccc(CN3CCC(C(O)(c4ccc(OC(F)(F)F)cc4)c4ccc(OC(F)(F)F)cc4)CC3)cc2)OCCCO1 [Compound 11] | 100 | 100 | –
OC(c1ccc(OC(F)(F)F)cc1)(c1ccc(OC(F)(F)F)cc1)C1CCN(Cc2ccc(C3SCCS3)cc2)CC1 [Compound 15] | 100 | 100 | –
OC(c1ccc(OC(F)(F)F)cc1)(c1ccc(OC(F)(F)F)cc1)C1CCN(Cc2ccc(C3OCCS3)cc2)CC1 (stereo not shown) [Compound 17] | 100 | 100 | –
CN1CCN(C)C1c1ccc(CN2CCC(C(O)(c3ccc(OC(F)(F)F)cc3)c3ccc(OC(F)(F)F)cc3)CC2)cc1 [Compound 25] | 100 | 100 | –
CC1(C)COC(c2ccc(CN3CCC(C(O)(c4ccc(OC(F)(F)F)cc4)c4ccc(OC(F)(F)F)cc4)CC3)cc2)OC1 [Compound 39] | 100 | 100 | –
OC(c1ccc(OC(F)(F)F)cc1)(c1ccc(OC(F)(F)F)cc1)C1CCN(Cc2ccc(C3OCC4(CC4)CO3)cc2)CC1 [Compound 45] | 100 | 100 | –
CC1CCOC(c2ccc(CN3CCC(C(O)(c4ccc(OC(F)(F)F)cc4)c4ccc(OC(F)(F)F)cc4)CC3)cc2)O1 (stereo not shown) [Compound 47] | 67 | 100 | –

SMILES | Percent Mortality [1] [%] | Percent Growth Inhibition [2] [%] | Percent Mortality (in vivo) [%]
CCC1COC(c2ccc(CN3CCC(C(O)(c4ccc(OC(F)(F)F)cc4)c4ccc(OC(F)(F)F)cc4)CC3)cc2)O1 (stereo not shown) [Compound 48] | 100 | 100 | –
CC(C)(C)C1COC(c2ccc(CN3CCC(C(O)(c4ccc(OC(F)(F)F)cc4)c4ccc(OC(F)(F)F)cc4)CC3)cc2)O1 (stereo not shown) [Compound 50] | 100 | 100 | –
COCC1COC(c2ccc(CN3CCC(C(O)(c4ccc(OC(F)(F)F)cc4)c4ccc(OC(F)(F)F)cc4)CC3)cc2)O1 (stereo not shown) [Compound 51] | 100 | 100 | –
C=CC1COC(c2ccc(CN3CCC(C(O)(c4ccc(OC(F)(F)F)cc4)c4ccc(OC(F)(F)F)cc4)CC3)cc2)O1 (stereo not shown) [Compound 52] | 100 | 100 | –
OC(c1ccc(OC(F)(F)F)cc1)(c1ccc(OC(F)(F)F)cc1)C1CCN(Cc2ccc(C3OCC(c4ccccc4)O3)cc2)CC1 (stereo not shown) [Compound 53] | 100 | 100 | –
OC(c1ccc(OC(F)(F)F)cc1)(c1ccc(OC(F)(F)F)cc1)C1CCN(Cc2ccc(C3OCCC(c4ccccc4)O3)cc2)CC1 (stereo not shown) [Compound 55] | 100 | 100 | –
OC(c1ccc(OC(F)(F)F)cc1)(c1ccc(OC(F)(F)F)cc1)C1CCN(Cc2ccc(C3(c4ccccc4)OCCO3)cc2)CC1 [Compound 57] | 100 | 100 | –
OC(c1ccc(OC(F)(F)F)cc1)(c1ccc(OC(F)(F)F)cc1)C1CCN(Cc2ccc(C3OCC=CCO3)cc2)CC1 [Compound 58] | 100 | 100 | –
CCCCN1CCSC1c1ccc(CN2CCC(C(O)(c3ccc(OC(F)(F)F)cc3)c3ccc(OC(F)(F)F)cc3)CC2)cc1 (stereo not shown) [Compound 59] | 100 | 100 | –
[O-][N+]1(Cc2ccc(C3OCC(c4ccccc4)O3)cc2)CCC(C(O)(c2ccc(OC(F)(F)F)cc2)c2ccc(OC(F)(F)F)cc2)CC1 (stereo not shown) [Compound 60] | 100 | 100 | –
COCC1COC(c2ccc(C[N+]3([O-])CCC(C(O)(c4ccc(OC(F)(F)F)cc4)c4ccc(OC(F)(F)F)cc4)CC3)cc2)O1 (stereo not shown) [Compound 61] | 100 | 100 | –
CCC1COC(c2ccc(C[N+]3([O-])CCC(C(O)(c4ccc(OC(F)(F)F)cc4)c4ccc(OC(F)(F)F)cc4)CC3)cc2)O1 (stereo not shown) [Compound 62] | 100 | 100 | –
[O-][N+]1(Cc2ccc(C3OCC=CCO3)cc2)CCC(C(O)(c2ccc(OC(F)(F)F)cc2)c2ccc(OC(F)(F)F)cc2)CC1 (stereo not shown) [Compound 63] | 100 | 100 | –
[O-][N+]1(Cc2ccc(C3(Cc4ccccc4)OCCO3)cc2)CCC(C(O)(c2ccc(OC(F)(F)F)cc2)c2ccc(OC(F)(F)F)cc2)CC1 (stereo not shown) [Compound 65] | 67 | 100 | –
OC(c1ccc(OC(F)(F)F)cc1)(c1ccc(OC(F)(F)F)cc1)C1CCN(Cc2ccc(C3(Cc4ccccc4)OCCO3)cc2)CC1 [Compound 66] | 67 | 100 | –
[O-][N+]1(Cc2ccc(C3(COc4ccccc4)OCCO3)cc2)CCC(C(O)(c2ccc(OC(F)(F)F)cc2)c2ccc(OC(F)(F)F)cc2)CC1 (stereo not shown) [Compound 67] | 100 | 100 | –
CC1CCOC(c2ccc(C[N+]3([O-])CCC(C(O)(c4ccc(OC(F)(F)F)cc4)c4ccc(OC(F)(F)F)cc4)CC3)cc2)O1 (stereo not shown) [Compound 68] | 100 | 100 | –
